Among the data in ChEMBL document CHEMBL5241080, “Quinoline anticancer agents active on DNA and DNA-interacting proteins: From classical to emerging therapeutic targets” (Eur J Med Chem, 2021) are IC50 values, retold here.

Molecules are shown by their SMILES.

Experiment [1] deals with HCT-116. Kind of experiment: Antiproliferative activity against human HCT-116 cells. In kind it is functional, cell-based.
In another experiment the test system is A549. Kind of experiment: Antiproliferative activity against human A549 cells. Format: functional, cell-based.
Experiment [2] deals with Histone-lysine N-methyltransferase SMYD3 (Homo sapiens, UniProt Q9H7B4). The experiment in a line: Inhibition of SMYD3 (unknown origin).
Histone-lysine N-methyltransferase SMYD3, sequence (Q9H7B4 whole entry): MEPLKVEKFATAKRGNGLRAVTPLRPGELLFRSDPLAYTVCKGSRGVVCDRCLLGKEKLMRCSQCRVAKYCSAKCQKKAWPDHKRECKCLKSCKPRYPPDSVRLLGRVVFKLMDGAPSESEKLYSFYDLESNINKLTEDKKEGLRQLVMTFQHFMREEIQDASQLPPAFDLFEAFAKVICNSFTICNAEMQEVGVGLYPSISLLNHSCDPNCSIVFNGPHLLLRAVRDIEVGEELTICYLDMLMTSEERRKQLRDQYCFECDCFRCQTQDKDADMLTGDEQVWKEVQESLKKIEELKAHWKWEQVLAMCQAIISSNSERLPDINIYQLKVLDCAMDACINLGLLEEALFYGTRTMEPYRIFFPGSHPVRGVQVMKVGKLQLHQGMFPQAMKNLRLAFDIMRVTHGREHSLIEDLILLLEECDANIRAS
The test system of another experiment is HepG2. Kind of experiment: Antiproliferative activity against human HepG2 cells. In kind it is functional, cell-based.
The subject of a further experiment is HPAC. Kind of experiment: Antiproliferative activity against human HPAC cells. Format: functional, cell-based.
Another experiment has as its system CFPAC-1. Kind of experiment: Antiproliferative activity against human CFPAC-1 cells. Format: functional, cell-based.
Another experiment concerns KG-1. Kind of experiment: Antiproliferative activity against human KG-1 cells. In kind it is functional, cell-based.
In experiment [3] the target is T1, DNA (cytosine-5)-methyltransferase 3A (Homo sapiens, UniProt Q9Y6K1). Kind of experiment: Inhibition of DNMT3A (unknown origin).
T1 sequence (Q9Y6K1 whole entry, looked up): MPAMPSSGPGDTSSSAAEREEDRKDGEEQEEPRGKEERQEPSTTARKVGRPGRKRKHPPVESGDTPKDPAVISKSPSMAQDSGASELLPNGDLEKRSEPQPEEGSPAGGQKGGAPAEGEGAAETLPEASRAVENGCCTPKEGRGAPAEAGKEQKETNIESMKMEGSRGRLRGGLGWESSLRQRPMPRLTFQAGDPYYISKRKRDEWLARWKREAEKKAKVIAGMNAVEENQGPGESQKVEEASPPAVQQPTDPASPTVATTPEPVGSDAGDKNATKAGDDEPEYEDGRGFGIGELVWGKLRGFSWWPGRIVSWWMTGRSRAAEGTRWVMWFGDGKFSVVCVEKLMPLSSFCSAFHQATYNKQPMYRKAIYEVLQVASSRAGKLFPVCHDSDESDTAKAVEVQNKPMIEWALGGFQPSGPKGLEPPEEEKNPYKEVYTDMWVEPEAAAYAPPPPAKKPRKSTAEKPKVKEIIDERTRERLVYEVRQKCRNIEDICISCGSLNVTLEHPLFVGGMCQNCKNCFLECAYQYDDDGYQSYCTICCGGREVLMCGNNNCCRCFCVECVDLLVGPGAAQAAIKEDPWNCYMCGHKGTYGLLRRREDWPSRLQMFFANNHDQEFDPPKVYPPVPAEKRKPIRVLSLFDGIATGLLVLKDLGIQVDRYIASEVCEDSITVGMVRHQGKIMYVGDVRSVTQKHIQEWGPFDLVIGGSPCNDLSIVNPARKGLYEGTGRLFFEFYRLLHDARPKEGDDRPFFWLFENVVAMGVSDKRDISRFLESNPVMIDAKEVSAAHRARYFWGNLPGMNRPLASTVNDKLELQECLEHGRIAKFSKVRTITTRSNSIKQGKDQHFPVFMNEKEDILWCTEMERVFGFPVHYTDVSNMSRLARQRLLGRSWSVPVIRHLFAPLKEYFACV
In another experiment the test system is HL-60. Kind of experiment: Antiproliferative activity against human HL-60 cells assessed as reduction cell viability incubated for 48 hrs by MTT assay. Format: functional, cell-based. The following applies: HL-60, 48 h. For orientation: Tetrazolium assays rely on reduction of a dye to a coloured formazan, in cell work by metabolically active cells.
A further experiment relates to NCI-H1299. The experiment in a line: Antiproliferative activity against human NCI-H1299 cells assessed as reduction cell viability incubated for 48 hrs by MTT assay. In kind it is functional, cell-based. Conditions: NCI-H1299, 48 h.
Experiment [4] has as its system HCT-116. Kind of experiment: Antiproliferative activity against human HCT-116 cells assessed as reduction cell viability incubated for 48 hrs by MTT assay. Format: functional, cell-based. Conditions: HCT-116, 48 h.
The next experiment deals with HeLa. Kind of experiment: Antiproliferative activity against human HeLa cells assessed as reduction cell viability incubated for 48 hrs by MTT assay. In kind it is functional, cell-based.
For another experiment, the system named is M14. The experiment in a line: Antiproliferative activity against human M14 cells assessed as reduction cell viability incubated for 48 hrs by MTT assay. In kind it is functional, cell-based. Conditions: M14, 48 h.
The subject of a further experiment is HT-1080. Kind of experiment: Antiproliferative activity against human HT-1080 cells assessed as reduction cell viability incubated for 48 hrs by MTT assay. The following applies: HT-1080, 48 h. Format: functional, cell-based.
In a further experiment the test system is MCF7. The experiment in a line: Antiproliferative activity against human MCF7 cells assessed as reduction cell viability incubated for 48 hrs by MTT assay. In kind it is functional, cell-based. Conditions: MCF7, 48 h.
For experiment [5], the target named is DNA (cytosine-5)-methyltransferase 1 (Homo sapiens, UniProt P26358). The experiment in a line: Inhibition of his-tagged human DNMT1 by scintillation counter analysis.
DNA (cytosine-5)-methyltransferase 1, sequence (P26358 whole entry): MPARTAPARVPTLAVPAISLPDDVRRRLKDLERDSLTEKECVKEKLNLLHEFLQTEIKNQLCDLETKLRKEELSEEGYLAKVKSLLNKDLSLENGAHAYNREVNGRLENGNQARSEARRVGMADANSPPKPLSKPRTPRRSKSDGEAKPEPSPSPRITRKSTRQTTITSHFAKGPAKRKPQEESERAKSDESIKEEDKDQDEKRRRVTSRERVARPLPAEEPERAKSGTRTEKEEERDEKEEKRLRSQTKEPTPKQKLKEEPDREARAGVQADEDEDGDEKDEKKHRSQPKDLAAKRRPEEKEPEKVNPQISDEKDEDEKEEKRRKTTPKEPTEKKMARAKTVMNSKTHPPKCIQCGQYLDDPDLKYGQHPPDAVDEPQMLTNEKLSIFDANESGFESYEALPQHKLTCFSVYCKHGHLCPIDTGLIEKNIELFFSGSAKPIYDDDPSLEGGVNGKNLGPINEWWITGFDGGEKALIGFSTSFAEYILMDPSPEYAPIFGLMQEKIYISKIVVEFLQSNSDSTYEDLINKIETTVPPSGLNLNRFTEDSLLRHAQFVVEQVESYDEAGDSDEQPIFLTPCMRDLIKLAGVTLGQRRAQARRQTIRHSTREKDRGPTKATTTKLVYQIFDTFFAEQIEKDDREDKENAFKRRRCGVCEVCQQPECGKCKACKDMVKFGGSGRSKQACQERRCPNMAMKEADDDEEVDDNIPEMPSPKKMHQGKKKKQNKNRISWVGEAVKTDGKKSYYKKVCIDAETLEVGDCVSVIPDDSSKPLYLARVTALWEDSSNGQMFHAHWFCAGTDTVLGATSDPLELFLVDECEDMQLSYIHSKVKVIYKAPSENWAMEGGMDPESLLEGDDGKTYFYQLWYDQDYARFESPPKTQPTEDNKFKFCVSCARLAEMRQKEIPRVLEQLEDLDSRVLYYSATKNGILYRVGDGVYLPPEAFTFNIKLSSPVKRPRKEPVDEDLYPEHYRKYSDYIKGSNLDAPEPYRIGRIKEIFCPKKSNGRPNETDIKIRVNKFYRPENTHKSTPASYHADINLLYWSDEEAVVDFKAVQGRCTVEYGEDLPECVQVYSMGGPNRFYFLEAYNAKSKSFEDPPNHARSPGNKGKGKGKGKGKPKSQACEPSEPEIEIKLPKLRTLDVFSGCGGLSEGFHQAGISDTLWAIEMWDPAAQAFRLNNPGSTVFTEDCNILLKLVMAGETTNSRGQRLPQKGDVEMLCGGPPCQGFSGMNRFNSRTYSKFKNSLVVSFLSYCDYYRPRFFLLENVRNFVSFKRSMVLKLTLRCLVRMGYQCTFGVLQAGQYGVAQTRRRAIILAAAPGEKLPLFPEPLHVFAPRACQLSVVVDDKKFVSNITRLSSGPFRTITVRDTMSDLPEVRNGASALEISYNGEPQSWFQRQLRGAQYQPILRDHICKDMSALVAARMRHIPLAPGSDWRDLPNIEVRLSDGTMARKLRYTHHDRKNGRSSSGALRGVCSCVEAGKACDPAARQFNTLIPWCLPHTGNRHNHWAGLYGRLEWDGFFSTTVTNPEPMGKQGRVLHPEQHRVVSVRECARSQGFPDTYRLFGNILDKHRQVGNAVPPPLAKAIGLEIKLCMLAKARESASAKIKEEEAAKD
Experiment [6] has as its target T1, DNA (cytosine-5)-methyltransferase 3A. The experiment in a line: Inhibition of C-terminal biotin-labelled human DNMT3A by multilabel plate reader analysis.

Usually IC50 stands for the concentration that inhibits the measured activity by half.

Consider `CCCOC(=O)N1CCN(C(=O)c2ccc3c(Cl)c4c(nc3c2)CCC(CCN)C4)CC1` (configuration not stated), for which the IC50 in the experiment on HCT-116 [1] amounted to 11 µM; in the experiment with A549, 11 µM; in [2] it was 0.04 µM; with HepG2, 11 µM; in the experiment on HPAC, 11 µM; in the experiment on CFPAC-1 it was 11 µM.

As to `O=C(Nc1ccc(Nc2ccnc3ccccc23)cc1)c1ccc(Nc2ccncc2)cc1`, the IC50 was 0.96 µM with KG-1; 0.9 µM in experiment [3]; 0.2 µM with HL-60; 14.7 µM with NCI-H1299; 1 µM with HCT-116 [4]; 0.14 µM in the experiment on HeLa. Besides, the IC50 with M14 stood at 0.5 µM; in the experiment with HT-1080, 0.5 µM; in the experiment on MCF7, 4.1 µM; in experiment [5], 23 µM; in experiment [6], 6 µM.
